Measured values taken from patent US11939319B2, “Pyridinyl and pyrazinyl-(asa)indolsulfonamides” (UCB Pharma GmbH, priority 2018, dated 2024).

Columns and labels:
GPR17 [1] = molecular target: T1, GPR17 (Homo sapiens, UniProt Q13304); details: WO 2005/103291; cited from earlier work
Target sequence in this assay (Q13304 whole entry, species assumed): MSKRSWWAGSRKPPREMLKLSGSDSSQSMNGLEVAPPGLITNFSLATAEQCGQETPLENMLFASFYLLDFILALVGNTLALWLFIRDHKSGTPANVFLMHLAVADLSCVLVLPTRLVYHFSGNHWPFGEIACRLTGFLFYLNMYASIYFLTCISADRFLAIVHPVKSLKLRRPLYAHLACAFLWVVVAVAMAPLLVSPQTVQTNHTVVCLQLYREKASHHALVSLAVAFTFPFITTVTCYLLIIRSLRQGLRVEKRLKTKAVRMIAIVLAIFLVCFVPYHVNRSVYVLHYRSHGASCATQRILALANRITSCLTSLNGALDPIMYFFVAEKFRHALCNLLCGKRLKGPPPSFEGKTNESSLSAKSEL

GPR17 [2] = molecular target: T1, GPR17; test: cAMP accumulation functional assay (HTRF) in CHO hGPR17 cells; assay type: cell-based; set-up: host or cells: Flp-In T-REx CHO cells, expression induced with doxycycline; details: Schild analysis against MDL29,951, 5 μM forskolin, activity range, read-out: cAMP assay pA2 (converted)
Method: (§1) Flp-In T-REx CHO cells stably expressing human GPR17 receptor (CHO hGPR17) from Evi Kostenis' lab (Bonn University, Germany) were cultured at 37° C. in a humidified atmosphere of 5% CO2. Cells were grown in DMEM with Nutrient Mixture F-12 supplemented with hygromycin B (500 μg/ml) and blasticidin (30 μg/ml). Expression from the Flp-In locus was induced by treatment with doxycycline (1 μg/ml) for 16-20 h prior assays.
GPR17 activation can also recruit Gi-type G-protein signaling, resulting in a decrease of intracellular cyclic adenosine monophosphate (cAMP). Intracellular cAMP changes can be measured using the HTRF cAMP dynamic assay kit from CisBio (Codolet, France). Using homogenous time-resolved fluorescence technology (HTRF), the assay is based on competition between native cAMP produced by cells and cAMP labelled with the dye d2. The tracer binding was determined by an anti-cAMP antibody labeled with cryptate.
CHO hGPR17 were detached with PBS containing EDTA and dispatched in black 384-well plates with 5,000 cells per well. Cells were first incubated for 30 minutes at room temperature in HBSS Hepes (pH 7.4) containing vehicle or varying concentrations of test GPR17 antagonist/inverse agonist compounds. Then, a dose response curve of MDL29,951 GPR17 agonist (typically from 10^−5M to 10^−10M) was added on vehicle and on each test GPR17 antagonist/inverse agonist compound concentration in a final volume of 20 μL HBSS Hepes buffer (pH 7.4) containing 1% DMSO, 5 μM forskolin and 0.1 mM IBMX. After 60 minutes incubation at room temperature, the reaction is terminated and the cells lysed by adding the d2 detection reagent and the cryptate reagent in 10 μL lysis buffer each according to manufacturer's instructions. After 60 minutes incubation, changes in cAMP concentrations are measured according to manufacturer's instructions using an Envision plate reader with laser excitation. All incubations were performed in duplicate. Data was analyzed using GraphPad Prism software using the 4-parameter logistic equation to measure MDL29,951 pEC50s in absence and presence of GPR17 antagonist/inverse agonist test compounds. Dose ratio (DR) were plotted against antagonist concentrations and Schild analysis provided estimated affinity pA2 of GPR17 antagonist/inverse agonist test compounds.
The activities of the Example compounds tested are depicted in the table below. The activity ranges A, B and C refer to pA2 values in the cAMP assay as follows: “A”: pA2 6.5≤x<7.5, “B”: pA2 7.5≤x<8.5, “C”: 8.5≤pA2.
Target sequence in this assay (Q13304 29-367 limits assumed): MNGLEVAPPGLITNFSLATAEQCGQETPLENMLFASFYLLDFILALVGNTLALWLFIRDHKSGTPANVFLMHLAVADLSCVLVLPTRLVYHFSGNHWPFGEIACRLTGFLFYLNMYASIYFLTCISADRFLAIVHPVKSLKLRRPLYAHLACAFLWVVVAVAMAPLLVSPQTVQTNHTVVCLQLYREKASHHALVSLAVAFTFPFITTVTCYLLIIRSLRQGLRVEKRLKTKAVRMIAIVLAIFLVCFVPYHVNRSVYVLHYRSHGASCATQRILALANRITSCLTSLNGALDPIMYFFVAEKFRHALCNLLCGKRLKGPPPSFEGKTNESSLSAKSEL

GPR17 [3] = molecular target: T1, GPR17; test: Calcium mobilization functional assay (Ca2+ assay) in CHO hGPR17 cells; assay type: cell-based; set-up: host or cells: Flp-In T-REx CHO cells, expression induced with doxycycline; details: inhibition of 50 nM MDL29,951 (GPR17 agonist), activity range, read-out: Ca^2+ assay pIC50 (converted)
Method: as §1
Target sequence in this assay (Q13304 29-367 limits assumed): as above
GPR17 is a G-protein coupled receptor. GPR17 activation triggers Gq-type G-protein signaling resulting in endoplasmic reticulum calcium (Ca^2+) stores release in cytosol which can be measured using Calcium 5 dye, a fluorescent indicator dye of cytosolic Ca^2+ levels. The compounds of the present invention were assessed either in the Ca^2+ assay or in the GPR17 cAMP assay, described further below.
CHO hGPR17 were defrosted and seeded at a density of 20,000 cells per well into black 384-well plates with clear bottom. Cells were incubated overnight at 37° C. in a humidified atmosphere of 5% CO2. Sixteen to twenty hours after seeding, CHO hGPR17 were loaded for 60 min with Calcium 5 dye, a cytosolic Ca^2+ indicator fluorescent dye, according to manufacturer's instructions. Fluorescent signal relative to cytosolic Ca^2+ concentration was recorded over time at room temperature in FLIPR Tetra reader. Cells were first incubated for 30 minutes at room temperature in HBSS Hepes buffer pH 7.4 containing increasing concentrations of test compounds (typically 10^−11 M to 10^−6M). Then, 50 nM MDL29,951, a GPR17 agonist, was added to the cells. Inhibitory effects of varying concentrations test compounds were measured and resulting pIC50S were determined. All incubations were performed in duplicate and results were compared to a concentration response curve of GPR17 agonist and antagonist reference compounds. Analysis and curve fitting were performed in ActivityBase XE using XLfit 4-parameter logistic equation y=A+((B−A)/(1+((C/x)^D))) where A, B, C and D stand for minimum y, maximum y, IC50 and slope, respectively.
The activities of the Example compounds tested are depicted in the table 6 in Section B-IIB below. The activity ranges A, B and C refer to pIC50 values in the Ca^2+ assay as follows: “A”: pIC50 6.5≤x<7.5, “B”: pIC50 7.5≤x<8.5, “C”: 8.5≤pIC50

Row | Kb (GPR17 [2]) [nM] | IC50 (GPR17 [3]) [nM] | Structure (SMILES) | amounts needed in the assays (GPR17 activating ligand) (GPR17 [1])
1 | – | – | NCC(=O)CCC(=O)O [Example 5-ALA, 5 amino levulinic acid] | three digit micromolar range
2 | 3.16 to 31.6 | 3.16 to 31.6 | Cc1nc(F)c(NS(=O)(=O)c2c[nH]c3cc(Cl)ccc23)cc1F [Example I-7, 6-chloro-N-(2,5-difluoro-6-methylpyridin-3-yl)-1H-indole-3-sulfonamide] | –
3 | 3.16 to 31.6 | ≤ 3.16 | O=S(=O)(Nc1cc(F)c(Cl)nc1F)c1c[nH]c2cc(Cl)ccc12 [Example I-2, 6-chloro-N-(6-chloro-2,5-difluoropyridin-3-yl)-1H-indole-3-sulfonamide] | –
4 | ≤ 3.16 | ≤ 3.16 | COc1nc(Br)cnc1NS(=O)(=O)c1c[nH]c2cc(Cl)ccc12 [Example I-10, N-(5-bromo-3-methoxypyrazin-2-yl)-6-chloro-1H-indole-3-sulfonamide] | –
5 | 31.6 to 316 | 31.6 to 316 | COc1nc(F)c(NS(=O)(=O)c2c[nH]c3nc(Cl)ccc23)cc1F [Example I-33, 6-chloro-N-(2,5-difluoro-6-methoxypyridin-3-yl)-1H-pyrrolo[2,3-b]pyridine-3-sulfonamide] | –
6 | 3.16 to 31.6 | 31.6 to 316 | O=S(=O)(Nc1ccc(I)nc1)c1c[nH]c2cc(Cl)ccc12 [Example I-21, 6-chloro-N-(6-iodopyridin-3-yl)-1H-indole-3-sulfonamide] | –
7 | ≤ 3.16 | 3.16 to 31.6 | O=S(=O)(Nc1cnc(Cl)cc1F)c1c[nH]c2cc(Cl)ccc12 [Example I-25, 6-chloro-N-(6-chloro-4-fluoropyridin-3-yl)-1H-indole-3-sulfonamide] | –
8 | ≤ 3.16 | ≤ 3.16 | COc1nc(OC)c(NS(=O)(=O)c2c[nH]c3cc(Cl)ccc23)cc1F [Example I-6, 6-chloro-N-(5-fluoro-2,6-dimethoxypyridin-3-yl)-1H-indole-3-sulfonamide] | –
9 | ≤ 3.16 | ≤ 3.16 | COc1nc(Cl)c(F)cc1NS(=O)(=O)c1c[nH]c2nc(Cl)ccc12 [Example I-32, 6-chloro-N-(6-chloro-5-fluoro-2-methoxypyridin-3-yl)-1H-pyrrolo[2,3-b]pyridine-3-sulfonamide] | –
10 | 3.16 to 31.6 | 3.16 to 31.6 | COc1nc(OC)c(NS(=O)(=O)c2c[nH]c3nc(Cl)ccc23)cc1F [Example I-34, 6-chloro-N-(5-fluoro-2,6-dimethoxypyridin-3-yl)-1H-pyrrolo[2,3-b]pyridine-3-sulfonamide] | –
11 | 31.6 to 316 | 31.6 to 316 | COc1ccc(NS(=O)(=O)c2c[nH]c3cc(Cl)ccc23)cn1 [Example I-15, 6-chloro-N-(6-methoxypyridin-3-yl)-1H-indole-3-sulfonamide] | –
12 | – | – | NCc1[nH]cc(CCC(=O)O)c1CC(=O)O [PBG, porphobilinogen] | mM range
